Results: PubChem BioAssay (NCI)
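96-well plates; 48 h exposure; 5 concentrations. Endpoints by linear interpolation between flanking doses. Not reached: highest tested concentration assigned. TGI: total growth inhibition.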

Legend:
Experiment in all cases: NCI tumour cell line growth inhibition, 48 h
BT-549 breast = system: BT-549 breast
OVCAR-5 ovarian = system: OVCAR-5 ovarian
SN12C renal = system: SN12C renal
HOP-92 NSCLC = system: HOP-92 NSCLC
COLO 205 colon = system: COLO 205 colon
HCT-15 colon = system: HCT-15 colon
LOX IMVI melanoma = system: LOX IMVI melanoma
SK-MEL-5 melanoma = system: SK-MEL-5 melanoma
HCC-2998 colon = system: HCC-2998 colon
EKVX NSCLC = system: EKVX NSCLC

Structure (SMILES)	TGI (BT-549 breast)	TGI (OVCAR-5 ovarian)	TGI (SN12C renal)	TGI (HOP-92 NSCLC)	TGI (COLO 205 colon)	TGI (HCT-15 colon)	TGI (LOX IMVI melanoma)	TGI (SK-MEL-5 melanoma)	TGI (HCC-2998 colon)	TGI (EKVX NSCLC)
Cn1c(=S)[nH]c(N)c(Cc2ccccc2)c1=O	> 100 µM	> 100 µM	> 100 µM	97.1 µM	> 100 µM	> 100 µM	> 100 µM	> 100 µM	> 100 µM	> 100 µM
CCOC(=O)c1cc([N+](=O)[O-])c(Sc2ncnc3nc[nH]c23)c([N+](=O)[O-])c1	20.1 µM	5.15 µM	30.6 µM	7.85 µM	3.08 µM	6.57 µM	17.9 µM	23 µM	36.7 µM	15.4 µM
COc1ccc(CNc2nc3cc(C(F)(F)F)ccc3nc2C(=O)O)cc1	69.6 µM	94.7 µM	62.6 µM	62.9 µM	39.7 µM	69.3 µM	44.3 µM	32.1 µM	71.3 µM	78.6 µM
Nc1ccc(C2SCC(=O)N2NS(=O)(=O)c2cccc(C(=O)O)c2)cc1 (stereo not given)	> 100 µM	> 100 µM	> 100 µM	> 100 µM	> 100 µM	> 100 µM	> 100 µM	> 100 µM	> 100 µM	> 100 µM
NS(=O)(=O)c1ccc(NC(=O)c2ccc3nc4ccccc4c(Nc4ccc(S(N)(=O)=O)cc4)c3c2)cc1	> 100 µM	> 100 µM	> 100 µM	> 100 µM	> 100 µM	> 100 µM	> 100 µM	> 100 µM	> 100 µM	> 100 µM
N=c1oc2cc(O)ccc2cc1C(=O)Nc1cccc2ccccc12	11.5 µM	36.3 µM	18.9 µM	14.5 µM	34.6 µM	11.5 µM	18.4 µM	15.8 µM	12.9 µM	14.6 µM
COC(=O)C1Cc2cc3c(cc2C1)CCC3	> 100 µM	> 100 µM	> 100 µM	> 100 µM	> 100 µM	> 100 µM	> 100 µM	> 100 µM	> 100 µM	> 100 µM
COc1ccc2nc3cc(Cl)ccc3c(NCCCCCC(=O)NC(COc3ccc4ccc5cccnc5c4n3)COc3ccc4ccc5cccnc5c4n3)c2c1	3.55 µM	47.9 µM	31.6 µM	44.1 µM	32.2 µM	> 100 µM	> 100 µM	30.4 µM	28.1 µM	58 µM
C=C(C)CCC(O)[C@](C)(O)[C@H]1[C@H](O)C[C@@]2(C)[C@@H]3CCc4c(cc(OC5OC(CO)C(O)C(O)C5O)c(O)c4C)C3(C)C(=O)C[C@]12C (stereo not given in full)	> 100 µM	> 100 µM	> 100 µM	> 100 µM	> 100 µM	> 100 µM	> 100 µM	–	> 100 µM	> 100 µM
Cc1ccc(S(=O)(=O)Nn2c(S)c(C#N)c(-c3ccc(Cl)cc3)c(C#N)c2=O)cc1	41.9 µM	> 100 µM	69.7 µM	> 100 µM	> 100 µM	71.1 µM	> 100 µM	42.2 µM	> 100 µM	> 100 µM
O[C@@]12Cc3c([nH]c4ccccc34)[C@@H]3Oc4c(-c5ccccc5)ccc5c4[C@@]31CCN(CC1CC1)[C@@H]2C5	23.4 µM	15.1 µM	–	21.4 µM	3.28 µM	4.06 µM	3.52 µM	3.25 µM	2.92 µM	4 µM
S=C1NNC2(C(=S)N1)c1ccccc1-c1ccccc12	> 10 µM	–	> 10 µM	> 10 µM	> 10 µM	> 10 µM	> 10 µM	> 10 µM	> 10 µM	> 10 µM
CCCCCCCCCCCCCCCC(=O)OC1C(O)C(O)C(O)C(O)C12CO2 (stereo not given)	> 100 µM	> 100 µM	34.5 µM	56.1 µM	> 100 µM	63.5 µM	53.2 µM	> 100 µM	> 100 µM	61.4 µM
Cn1c(=O)cc(Nc2ccc(N)cc2)[nH]c1=O	> 100 µM	> 100 µM	> 100 µM	> 100 µM	> 100 µM	> 100 µM	> 100 µM	> 100 µM	> 100 µM	> 100 µM
C/C(=N\O)c1cccc(Nc2c3ccccc3nc3occc23)c1	24.1 µM	> 100 µM	> 100 µM	47.9 µM	> 100 µM	> 100 µM	> 100 µM	> 100 µM	52.4 µM	50.6 µM
OCC1OC(n2cnc3c(Cl)nc(Nc4ccc(Cl)c(Cl)c4)nc32)CC1O (stereo not given)	22.3 µM	> 50 µM	23.4 µM	16.3 µM	20.5 µM	21.7 µM	16 µM	16.9 µM	17.1 µM	28.2 µM

Structure (SMILES)	TGI (BT-549 breast)	TGI (OVCAR-5 ovarian)	TGI (SN12C renal)	TGI (HOP-92 NSCLC)	TGI (COLO 205 colon)	TGI (HCT-15 colon)	TGI (LOX IMVI melanoma)	TGI (SK-MEL-5 melanoma)	TGI (HCC-2998 colon)	TGI (EKVX NSCLC)
c1cc(CSc2ncnc3nc[nH]c23)ccn1	> 100 µM	> 100 µM	> 100 µM	> 100 µM	> 100 µM	> 100 µM	> 100 µM	> 100 µM	> 100 µM	> 100 µM
OC(Cc1cc(CC(O)(C(F)(F)F)C(F)(F)F)nc(CC(O)(C(F)(F)F)C(F)(F)F)c1)(C(F)(F)F)C(F)(F)F	6.1 µM	> 10 µM	7.33 µM	3.45 µM	2.14 µM	3.95 µM	1.34 µM	2.84 µM	> 10 µM	9.32 µM
CN1CCN(c2n[nH]c(=O)c3c2nnn3C2CCCCC2)CC1	> 100 µM	> 100 µM	> 100 µM	> 100 µM	> 100 µM	> 100 µM	> 100 µM	> 100 µM	> 100 µM	> 100 µM
O=C(/C=C/c1cccc(Br)c1)N1CCN(CCOC(c2ccccc2)c2ccccc2)CC1	84.2 µM	> 100 µM	> 100 µM	99.1 µM	57.4 µM	> 100 µM	54.8 µM	30.7 µM	> 100 µM	> 100 µM
CC/C=C\C=C/C(=O)N/C=C/CCC	> 100 µM	> 100 µM	> 100 µM	> 100 µM	–	> 100 µM	> 100 µM	–	> 100 µM	> 100 µM
CCCCCCCCCCCCc1ccsc1-c1ccc(-c2ccc(-c3sccc3CCCCCCCCCCCC)s2)s1	> 100 µM	> 100 µM	> 100 µM	> 100 µM	> 100 µM	> 100 µM	> 100 µM	> 100 µM	> 100 µM	> 100 µM
Cc1cccc(N=N/C(=N\NC(=O)c2cc(Cl)ccc2O)c2ccc(N(CCC#N)CCC#N)cc2C)c1	> 100 µM	> 100 µM	69 µM	60.7 µM	29.3 µM	88.2 µM	> 100 µM	> 100 µM	58.7 µM	> 100 µM
CC(=O)Oc1cc(-c2oc3cc(OC(C)=O)c(C4OC(CO)C(O)C(O)C4O)c(OC(C)=O)c3c(=O)c2O)c(OC(C)=O)cc1O (stereo not given)	> 100 µM	> 100 µM	> 100 µM	> 100 µM	> 100 µM	> 100 µM	> 100 µM	> 100 µM	> 100 µM	> 100 µM
S=C(S)NCCN1CCNCC1	> 100 µM	> 100 µM	> 100 µM	> 100 µM	43.7 µM	> 100 µM	> 100 µM	> 100 µM	68.7 µM	> 100 µM
C=C1CC[C@@H]2[C@](C)(COC(=O)CCC(=O)O)CCC[C@@]2(C)[C@@H]1CCC1=CC(=O)OC1	> 100 µM	> 100 µM	> 100 µM	> 100 µM	> 100 µM	> 100 µM	> 100 µM	> 100 µM	> 100 µM	> 100 µM
CON[N+]([O-])=NC(C)C	> 100 µM	> 100 µM	> 100 µM	> 100 µM	> 100 µM	> 100 µM	> 100 µM	> 100 µM	> 100 µM	> 100 µM
CC1CC(=O)Nc2ccccc2N1C(=O)C1CC1 (stereo not given)	> 100 µM	> 100 µM	> 100 µM	> 100 µM	> 100 µM	> 100 µM	> 100 µM	> 100 µM	> 100 µM	> 100 µM
CCN(CC)CCSc1c(C(C)=O)c(=O)n(-c2ccccc2)c(=S)n1-c1ccccc1	30.8 µM	53.2 µM	31.6 µM	5.8 µM	3.92 µM	8.86 µM	9.04 µM	> 45.1 µM	24.5 µM	32.7 µM
CN(/N=C/C=N/N(C)C1=NCCN1)C1=NCCN1	> 100 µM	> 100 µM	> 100 µM	> 100 µM	> 100 µM	> 100 µM	> 100 µM	> 100 µM	> 100 µM	> 100 µM
CC1(C)[C@H]2Cc3cc4nc5ccccn5c4cc3[C@@H]1C2	41.5 µM	30.8 µM	35.8 µM	29.3 µM	34.7 µM	35 µM	39.4 µM	34.3 µM	37 µM	32.7 µM
CN(C)NC1=NS(=O)(=O)c2cc3c(=O)n(C)[nH]c3cc2S1	> 10 µM	> 10 µM	> 10 µM	> 10 µM	> 10 µM	> 10 µM	> 10 µM	> 10 µM	> 10 µM	> 10 µM
